Measurements as given in PMC6768323, “Adverse Maternal, Fetal, and Postnatal Effects of Hexafluoropropylene Oxide Dimer Acid (GenX) from Oral Gestational Exposure in Sprague-Dawley Rats” (Environmental Health Perspectives, 2019).

Target: T1, chimp AR (Pan troglodytes, UniProt O97775)
T1 construct: expressed in transfected cells; host or cells: CV-1 cells (ATCC CCL-70), adenoviral transduction
T1 sequence (O97775 1-911): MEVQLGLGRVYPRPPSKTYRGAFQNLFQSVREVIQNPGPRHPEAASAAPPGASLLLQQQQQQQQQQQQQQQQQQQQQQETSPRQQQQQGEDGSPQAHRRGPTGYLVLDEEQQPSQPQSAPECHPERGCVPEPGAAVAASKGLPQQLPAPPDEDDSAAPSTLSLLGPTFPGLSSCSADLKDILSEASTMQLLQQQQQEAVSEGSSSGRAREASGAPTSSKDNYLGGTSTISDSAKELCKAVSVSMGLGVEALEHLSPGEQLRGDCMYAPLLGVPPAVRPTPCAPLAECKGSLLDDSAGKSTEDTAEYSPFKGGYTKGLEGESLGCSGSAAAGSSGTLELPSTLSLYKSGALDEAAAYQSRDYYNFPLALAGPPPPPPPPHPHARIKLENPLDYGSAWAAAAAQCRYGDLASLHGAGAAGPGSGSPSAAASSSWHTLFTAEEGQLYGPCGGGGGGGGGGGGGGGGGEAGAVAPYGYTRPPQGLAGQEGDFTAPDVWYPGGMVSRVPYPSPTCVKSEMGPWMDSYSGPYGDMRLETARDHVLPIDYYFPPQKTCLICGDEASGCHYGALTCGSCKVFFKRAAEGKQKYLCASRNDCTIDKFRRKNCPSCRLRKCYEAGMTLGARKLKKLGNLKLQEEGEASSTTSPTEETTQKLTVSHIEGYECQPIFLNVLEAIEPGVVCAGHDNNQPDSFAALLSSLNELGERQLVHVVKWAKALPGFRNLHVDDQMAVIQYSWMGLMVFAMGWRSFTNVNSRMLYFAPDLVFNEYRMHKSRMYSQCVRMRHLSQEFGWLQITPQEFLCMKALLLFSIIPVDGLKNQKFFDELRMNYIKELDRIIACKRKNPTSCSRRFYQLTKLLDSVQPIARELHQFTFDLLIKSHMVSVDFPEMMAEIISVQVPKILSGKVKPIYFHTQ
Experiment: AR transcriptional activation, CV-1 cells
Type: cell-based
Method: HFPO-DA was assessed for agonism and antagonism of transcriptional activation for estrogen (ER), androgen (AR), and glucocorticoid receptors (GR). Method details for in vitro transactivation assays for ER ([Wilson et al. 2004a]), AR ([Hartig et al. 2002], [2007]), and GR ([Conley et al. 2017]; [Medlock Kakaley et al. 2018]) have been previously reported. Briefly, for ER activity we utilized the stably transfected T47D-KBluc cell line [publicly available via American Type Culture Collection (ATCC); CRL-2865] according to protocols provided by ATCC with the modification of Dulbecco’s Modified Eagle Media (DMEM) as the cell culture media instead of Roswell Park Memorial Institute (RPMI) media. […] All assays were run in 96-well plates and luminescence was detected using a BMG Fluostar Omega luminometer (BMG Labtech) following 24-h exposure. […] Cellular cytotoxicity across the dosing range was determined for CV-1 cells utilizing the 3-(4,5-dimethylthiazol-2-yl)-2,5-diphenyltetrazolium bromide (MTT) dye ([Mosmann 1983]). HFPO-DA was analyzed using n=2–3 biological replicate assay plates (i.e., unique cell passages) with four technical replicates per treatment per plate. […]

O=C(O)C(F)(OC(F)(F)C(F)(F)C(F)(F)F)C(F)(F)F (centres unmarked) [HFPO-DA, Hexafluoropropylene oxide dimer acid] was tested, and the androgen receptor agonism (100 pM to 100 μM) was “no androgen or glucocorticoid receptor agonism” and the “androgen receptor antagonism, reduction in luciferase expression” value (100 μM, versus 100 pM DHT) was 42±1%.
